Results as given in patent US11266707B2, “Nutraceuticals for the prevention, inhibition, and treatment of SARS-CoV-2 and associated COVID-19” (priority 2020, dated 2022).
Read-outs that look alike come from different tables or passages of the source.

Key:
[1] = system: primary peritoneal macrophages; conditions: cited from earlier work
[2] = system: LPS-challenged macrophages; conditions: pre-incubated 6 h with 0 to 50 μM, then LPS 24 h; cited from earlier work
[3] = system: LPS-induced ARDS; conditions: cited from earlier work
[4] = system: lipopolysaccharide-induced inflammatory reactions; conditions: cited from earlier work
[5] = system: sepsis induction with live Escherichia coli; conditions: cited from earlier work; for concentration of IL-1a: controls 1187.0±278.64, P<0.05
[6] = system: lipopolysaccharide-activated macrophages; conditions: cited from earlier work
[7] = system: macrophage foam cells; conditions: pretreatment; cited from earlier work
[8] = 10 mg/kg intravenously then 10 mg/kg/h infusion; cited from earlier work
[9] = cited from earlier work
[10] = 10 mg/kg intraperitoneally at 1 and 6 h after CL2P and every 12 h; 18 h; cited from earlier work
[11] = 10 mg/kg intraperitoneally; 72 h after CL2P; cited from earlier work
[12] = cited from earlier work; remark: listed apart in the source
[13] = system: LPS-induced ARDS; conditions: cited from earlier work; remark: listed apart in the source
[14] = system: NK cell; assay: Pterostilbene given as nanostilbene to cancer patients: NK cell activity and interferon gamma; assay type: in vivo, human; conditions: administered in the form of nanostilbene in cancer patients
[15] = animal studies; cited from earlier work
[16] = system: interleukin-I, interleukin-6, interleukin-8, TNF-alpha; conditions: cited from earlier work
[17] = system: human umbilical vein VECs (HUVECs); conditions: cited from earlier work
[18] = system: endothelium of atherosclerotic plaque; conditions: apoE(−/−) mice, injection; cited from earlier work
[19] = 50 mg/kg, LPS 5 mg/kg 3 days later
[20] = lung, serum, and bronchoalveolar lavage fluid

C[S+]([O-])CCCCN=C=S (stereo not shown) [sulforaphane, 1-isothiocyanato-4-(methylsulfinyl)-butane]
HO-1 expression ([1]; LPS-stimulated Nrf2 (+/+) primary peritoneal macrophages): significantly augmented | LPS-stimulated mRNA expression, protein expression and production of TNF-alpha, IL-1beta, COX-2 and iNOS ([1]; Nrf2 (+/+) primary peritoneal macrophages, pretreatment): potently inhibited | anti-inflammatory effect ([1]; Nrf2 (−/−) primary peritoneal macrophages): attenuated | expression of NO and cytokines [2]: able to prevent | serum levels of interleukin-6 (IL-6) ([3]; 50 mg/kg, ELISA): significantly decreased | serum levels of tumor necrosis factor-a (TNF-a) ([3]; 50 mg/kg, ELISA): significantly decreased | lactate dehydrogenase (LDH) activity [3, 19]: significantly decreased | wet-to-dry ratio of the lungs [3, 19]: significantly decreased | inducible nitric oxide synthase (iNOS) activity ([3]; 50 mg/kg): significantly inhibited | prostaglandin E2 (PGE2) production ([3]; 50 mg/kg): significantly inhibited | Nrf2/antioxidant response element (ARE) pathway ([3]; pre-treatment): activated | cyclooxygenase-2 (COX-2) protein expression ([3]; western blot): significantly inhibited | matrix metalloproteinase-9 (MMP-9) protein expression ([3]; western blot): significantly inhibited

CC1=CC(=O)C(C(C)C)=CC1=O [thymoquinone]
lipopolysaccharide-induced inflammatory reactions [4]: suppressed effectively | concentration of nitric oxide ([4]; marker of inflammation): reduced significantly | concentration of IL-1a ([5]; 0.75 mg/kg dose): 310.8 ± 70.93 pg/mL | IL-10 levels ([5]; 0.75 mg/kg, controls 5505.2±333.96, P<0.01): 2885.0 ± 553.98 pg/mL | concentration of IL-1a ([5]; 1 mg/kg group): 428.3 ± 71.32 pg/mL | levels of IL-2 ([5]; P value 0.0851): relatively lower | levels of TNF-a ([5]; P value 0.1817): relatively lower | reduced mortality ([5]; mice, sepsis models): 80-90% | renal and hepatic biomarker profiles ([5]; mice, sepsis models): improved

Epigallocatechin-3-Gallate [EGCG]
NO production ([6]; cells cotreated with EGCG and LPS): Inhibition | disappearance of inhibitor kappaB from cytosolic fraction [6]: blocked | activation of nuclear factor-kappaB ([6]; electrophoretic mobility shift assay): blocked | TNF-a-induced downregulation of ABCA1 and decrease in cholesterol efflux to apoA1 [7]: attenuated | myeloperoxidase activity [8]: reduced | myocardial damage [8]: reduced | plasma IL-6 levels [8]: decreased | plasma creatine phosphokinase levels [8]: decreased | colonic tissue erosion ([9]; 50 and 100 mg/kg/day): attenuation | HIF-1a and STAT3 protein expression in the colon ([9]; mouse, in vivo): decreasing | plasma levels of IL-10 ([9]; mouse, in vivo): increasing | plasma levels of TGF-1 ([9]; mouse, in vivo): increasing | release of IL-6 ([9]; plasma): reduce | release of IL-17 ([9]; plasma): reduce | hypotension (mean arterial blood pressure) [10]: significantly improved | survival [11]: significantly improved | lethal sepsis ([12]; first dose given 24 hours after cecal ligation and puncture): rescued | lethal endotoxemia ([12]; intraperitoneal administration): protected | systemic accumulation of HMGB1, IL-6 and KC ([12]; mouse, in vivo): attenuation | LPS-induced ARDS ([13]; 10 mg/kg ip 1 h before LPS 10 mg/kg ip): attenuated | changes in blood gases ([13]; 10 mg/kg ip): decreased | histological lesions ([13]; 10 mg/kg ip): reduced | myeloperoxidase (MPO) activity ([13]; 10 mg/kg ip): reduced | expression of IKB-a ([13]; lung tissue): increased | expression of TLR-4, MyD88, TRIP, and p-p65 ([13]; lung tissue): alleviated | expression of p65 ([13]; lung tissue): no influence | expression of IL-6 [13, 20]: significantly decreased | expression of interleukin (IL)-1′ [13, 20]: significantly decreased | expression of tumor necrosis factor (TNF)-a [13, 20]: significantly decreased

trans-3,5-dimethoxy-4-hydroxystilbene [pterostilbene]
NK cell activity [14]: increased | interferon gamma production [14]: increased | bioavailability [15]: 80% | inflammatory cytokines associated with ARDS (interleukin-I, interleukin-6, interleukin-8, TNF-alpha) [16]: inhibit inflammatory cytokines | oxLDL-induced cell shrinkage, chromatin condensation, nuclear fragmentation, and cell apoptosis ([17]; HUVECs, oxLDL 200 μg/ml): protected against such injuries | expression of lectin-like oxLDL receptor-I (LOX-1) ([17]; in vitro and in vivo): inhibited | number of TUNEL-positive cells in the endothelium of atherosclerotic plaque [18]: strongly decreased
